Laboratory results from patent US7563621B2, “Absorbing organic reagents into diagnostic test devices by formation of amine salt complexes” (Siemens Healhcare Diagnostics Inc, priority 2003, dated 2009).
Values joined by “and” are separate entries in the source; they are usually repeats but may differ in a detail not shown here. Identical values can stand only once. Counter-ions that a name gives are not always drawn.

Tests used:
Tamm-Horsfall [1] = target: T1, Tamm-Horsfall (Homo sapiens, UniProt P07911); test: Automated protein assay with pyrogallol red salts, 74 μM (Example 6); conditions: Series #1 and #2; for average net absorbance at 600 nm after subtracting PBS sample reaction result: Tamm-Horsfall 25 mg/dL, 10 minutes, 37° C, 900 nm baseline subtracted; for Percent Detection as Percentage of HSA Detection: Tamm-Horsfall
Description: (§1) The dilutor was programmed for reactions of 180 μL reagent+40 μL sample. […] The samples were phosphate buffered saline (blank), human serum albumin (HSA) 25 mg/dL, and other proteins (i.e., human IgG, […], and Lambda Light Chain) at 25 mg/dL. Absorbance data were collected on a Biotek, Powerwave X Microplate Absorbance reader using BioTek “KC Jr” software to determine the relative detection of the different proteins (i.e., HSA, human IgG, […], and Lambda Light Chain) using salts of pyrogallol red. Two sets of replicates of the different proteins were run. […] The protein response was determined by subtracting the phosphate buffered saline sample reaction result from the protein reaction result. […] The results for protein equivalence of the non-albumin proteins were expressed as a percentage of the protein colorimetric response to HSA as shown in Table 11 below.

Lambda Light Chain [2] = test: as above; conditions: Series #1 and #2; for Percent Detection as Percentage of HSA Detection: Lambda Light Chain
Description: as §1

human IgG [3] = test: as above; conditions: Series #1 and #2; for average net absorbance at 600 nm after subtracting PBS sample reaction result: IgG 25 mg/dL, 10 minutes, 37° C, 900 nm baseline subtracted; for Percent Detection as Percentage of HSA Detection: IgG
Description: as §1

[4] = target: T2, human serum albumin (HSA) (Homo sapiens, UniProt P02768); test: as above; conditions: HSA 25 mg/dL; 10 minutes, 37° C; 900 nm baseline subtracted; Series #1 and #2
T2 sequence (P02768 25-609): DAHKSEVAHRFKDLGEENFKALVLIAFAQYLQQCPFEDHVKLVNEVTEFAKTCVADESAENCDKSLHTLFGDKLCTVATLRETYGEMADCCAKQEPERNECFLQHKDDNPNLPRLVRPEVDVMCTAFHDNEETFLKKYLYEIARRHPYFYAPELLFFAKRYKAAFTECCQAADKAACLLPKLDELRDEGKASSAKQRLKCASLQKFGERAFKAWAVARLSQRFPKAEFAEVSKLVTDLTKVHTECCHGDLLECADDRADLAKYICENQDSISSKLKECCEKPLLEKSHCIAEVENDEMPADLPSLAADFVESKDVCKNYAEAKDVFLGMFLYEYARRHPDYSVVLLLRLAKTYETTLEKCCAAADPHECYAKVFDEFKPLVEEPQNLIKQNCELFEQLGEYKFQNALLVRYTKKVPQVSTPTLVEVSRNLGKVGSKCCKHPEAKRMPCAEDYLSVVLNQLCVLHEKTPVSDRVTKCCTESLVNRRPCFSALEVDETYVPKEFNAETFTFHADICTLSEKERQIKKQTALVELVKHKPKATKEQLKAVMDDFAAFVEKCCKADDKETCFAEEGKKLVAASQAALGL
Description: The dilutor was programmed for reactions of 180 μL reagent+40 μL sample. […] The samples were phosphate buffered saline (blank), human serum albumin (HSA) 25 mg/dL, and other proteins (i.e., human IgG, […], and Lambda Light Chain) at 25 mg/dL. Absorbance data were collected on a Biotek, Powerwave X Microplate Absorbance reader using BioTek “KC Jr” software to determine the relative detection of the different proteins (i.e., HSA, human IgG, […], and Lambda Light Chain) using salts of pyrogallol red. Two sets of replicates of the different proteins were run. […] The protein response was determined by subtracting the phosphate buffered saline sample reaction result from the protein reaction result.

Tamm-Horsfall [5] = target: T1, Tamm-Horsfall; test: Automated protein assay with pyrogallol red salts, 54 μM (Example 5); conditions: 10 minutes; for 600 nm Absorbance Level, salt with Protein / 900 nm Absorbance Background Level, salt with Protein / Reaction Absorbance at 600 nm − Absorbance at 900 nm (net protein response, protein minus non-protein sample): Tamm-Horsfall 25 mg/dL; for 600 nm Absorbance Level, salt with Protein / 900 nm Absorbance Background Level, salt with Protein / 600 nm Absorbance Level, salt in Phosphate Buffered Saline (No Protein) / 900 nm Absorbance Background Level, salt in Phosphate Buffered Saline (No Protein): 37° C, replicates #1 and #2; for Reaction Absorbance at 600 nm − Absorbance at 900 nm (net protein response, protein minus non-protein sample): averaged data; for 600 nm Absorbance Level, salt in Phosphate Buffered Saline (No Protein) / 900 nm Absorbance Background Level, salt in Phosphate Buffered Saline (No Protein): Tamm-Horsfall
Description: (§2) The dilutor was programmed for reactions of 180 μL reagent+40 μL sample. […] The samples were phosphate buffered saline (blank), human serum albumin (HSA) 25 mg/dL, and other proteins (i.e., human IgG, […], and Lambda Light Chain) at 25 mg/dL. Absorbance rate data were collected on a Biotek, Powerwave X Microplate Absorbance reader using BioTek “KC Jr” software to determine the relative detection of the different proteins (i.e., HSA, human IgG, […], and Lambda Light Chain) using salts of pyrogallol red. Two sets of replicates of the different proteins were run. […] The protein response was determined by subtracting the phosphate buffered saline sample reaction result from the protein reaction result.

Lambda Light Chain [6] = test: as above; conditions: Lambda Light Chain 25 mg/dL, 10 minutes, averaged data
Description: as §2

[7] = target: T2, human serum albumin (HSA); test: as above; conditions: 10 minutes; for 600 nm Absorbance Level, salt with Protein / 900 nm Absorbance Background Level, salt with Protein / Reaction Absorbance at 600 nm − Absorbance at 900 nm (net protein response, protein minus non-protein sample): HSA 25 mg/dL; for 600 nm Absorbance Level, salt with Protein / 900 nm Absorbance Background Level, salt with Protein / 600 nm Absorbance Level, salt in Phosphate Buffered Saline (No Protein) / 900 nm Absorbance Background Level, salt in Phosphate Buffered Saline (No Protein): 37° C, replicates #1 and #2; for Reaction Absorbance at 600 nm − Absorbance at 900 nm (net protein response, protein minus non-protein sample): averaged data; for 600 nm Absorbance Level, salt in Phosphate Buffered Saline (No Protein) / 900 nm Absorbance Background Level, salt in Phosphate Buffered Saline (No Protein): HSA
Description: as §2

human IgG [8] = test: as above; conditions: IgG 25 mg/dL, 10 minutes, averaged data
Description: as §2

[9] = Butanol/water partitioning of pyrogallol red dye salts (Example 3); assay type: physicochemical; conditions: 276 nm; for Absorbance of Dye Salt in Butanol: butanol layer; for Absorbance of Dye Salt in Water: water layer
Description: Extractions were then performed in Mixxor extractors.

Compound | average net absorbance at 600 nm after subtracting PBS sample reaction result (Tamm-Horsfall [1]) | Percent Detection as Percentage of HSA Detection (Tamm-Horsfall [1]) | Percent Detection as Percentage of HSA Detection (Lambda Light Chain [2]) | average net absorbance at 600 nm after subtracting PBS sample reaction result (human IgG [3]) | Percent Detection as Percentage of HSA Detection (human IgG [3]) | average net absorbance at 600 nm after subtracting PBS sample reaction result [4] | 600 nm Absorbance Level, salt with Protein (Tamm-Horsfall [5]) | 900 nm Absorbance Background Level, salt with Protein (Tamm-Horsfall [5]) | 600 nm Absorbance Level, salt in Phosphate Buffered Saline (No Protein) (Tamm-Horsfall [5]) | 900 nm Absorbance Background Level, salt in Phosphate Buffered Saline (No Protein) (Tamm-Horsfall [5]) | 600 nm Absorbance Level, salt with Protein [7] | 900 nm Absorbance Background Level, salt with Protein [7] | 600 nm Absorbance Level, salt in Phosphate Buffered Saline (No Protein) [7] | 900 nm Absorbance Background Level, salt in Phosphate Buffered Saline (No Protein) [7] | also measured
O=c1ccc2c(-c3ccccc3S(=O)(=O)O)c3ccc(O)c(O)c3oc-2c1O [Sodium Pyrogallol Red Salt, pyrogallol red, reference compound] | 0.0141 and 0.0118 | 26% and 21% | 8% and 7% | 0.0311 and 0.0318 | 58% and 56% | 0.0563 and 0.0536 | 0.203 and 0.204 | 0.036 | 0.196 and 0.198 | 0.036 and 0.035 | 0.211 | 0.035 | 0.197 and 0.196 | 0.035 | average net absorbance at 600 nm after subtracting PBS sample reaction result (Lambda Light Chain [2]; Lambda Light Chain 25 mg/dL, 10 minutes, 37° C, 900 nm baseline subtracted): 0.0041 and 0.0037; Percent Detection as Percentage of HSA Detection (Lambda Light Chain [2]; listed as sodium): 8%; Reaction Absorbance at 600 nm − Absorbance at 900 nm (net protein response, protein minus non-protein sample) (Tamm-Horsfall [5]; listed as Sodium Salt): 0.007; Reaction Absorbance at 600 nm − Absorbance at 900 nm (net protein response, protein minus non-protein sample) (Lambda Light Chain [6]; listed as Sodium Salt): 0.006; Reaction Absorbance at 600 nm − Absorbance at 900 nm (net protein response, protein minus non-protein sample) ([7]; listed as Sodium Salt): 0.015; Reaction Absorbance at 600 nm − Absorbance at 900 nm (net protein response, protein minus non-protein sample) (human IgG [8]; listed as Sodium Salt): 0.008; Ratio of Butanol Absorbance to Water Absorbance ([9]; Sodium Hydroxide): 0.10; Absorbance of Dye Salt in Butanol ([9]; Sodium Hydroxide): 0.034; Absorbance of Dye Salt in Water ([9]; Sodium Hydroxide): 0.338
O=c1ccc2c(-c3ccccc3S(=O)(=O)O)c3ccc(O)c(O)c3oc-2c1O [Triethylamine Pyrogallol Red Salt, pyrogallol red] | 0.0135 and 0.0109 | 22% and 19% | 3% and 9% | 0.0285 and 0.0284 | 48% and 51% | 0.0559 and 0.0600 | – | – | – | – | – | – | – | – | Ratio of Butanol Absorbance to Water Absorbance ([9]; Triethylamine): 0.23; Absorbance of Dye Salt in Butanol ([9]; Triethylamine): 0.063; Absorbance of Dye Salt in Water ([9]; Triethylamine): 0.274
O=c1ccc2c(-c3ccccc3S(=O)(=O)O)c3ccc(O)c(O)c3oc-2c1O [Trioctylamine Pyrogallol Red Salt, pyrogallol red] | – | – | – | – | – | – | 0.454 and 0.45 | 0.085 and 0.084 | 0.485 and 0.486 | 0.081 and 0.082 | 0.454 and 0.464 | 0.087 and 0.088 | 0.476 and 0.483 | 0.082 and 0.081 | Reaction Absorbance at 600 nm − Absorbance at 900 nm (net protein response, protein minus non-protein sample) (Tamm-Horsfall [5]; listed as Trioctylamine Salt): −0.034; Reaction Absorbance at 600 nm − Absorbance at 900 nm (net protein response, protein minus non-protein sample) (Lambda Light Chain [6]; listed as Trioctylamine Salt): −0.042; Reaction Absorbance at 600 nm − Absorbance at 900 nm (net protein response, protein minus non-protein sample) ([7]; listed as Trioctylamine Salt): −0.021; Reaction Absorbance at 600 nm − Absorbance at 900 nm (net protein response, protein minus non-protein sample) (human IgG [8]; listed as Trioctylamine Salt): −0.011; Ratio of Butanol Absorbance to Water Absorbance ([9]; Trioctylamine): 3.17; Absorbance of Dye Salt in Butanol ([9]; Trioctylamine): 0.155; Absorbance of Dye Salt in Water ([9]; Trioctylamine): 0.049
